Source: patent US8889345B2, “Detection methods of NADP(H) using mBFP” (priority 2012, dated 2014)
Values belong to the molecule of their own block, whether it stands above or below them.

Tests used:
Alcohol dehydrogenase = experiment: Inhibitor IC50 against NADPH dependent oxidoreductase, by his-mBFP fluorescence quantification of NADPH; type: biochemical; details: compounds added at 0.1 to 10 mM, sigma plot
Protocol: (§1) As an example of typical reactions, first, 0.02 units of glutathione reductase was reacted with 50 mM potassium phosphate buffer (pH 7.5) containing 5 mM of oxidized glutathione (GSSG) and 2 mM NADPH at room temperature, and then fluorescence was measured. In addition, 0.03 units of isocitrate dehydrogenase was reacted with 50 mM phosphate buffer (pH 7.2) containing 5 mM isocitrate, 2 mM MgCl2, and 2 mM NADP+ at room temperature, and then fluorescence was measured. In addition, 0.02 units of glucose-6-phosphate dehydrogenase was reacted with 50 mM Tris-HCL buffer (pH 7.5) containing 5 mM glucose-6-phosphate, 50 mM MgCl2, and 2 mM NADP+ at room temperature, and then fluorescence was measured. Further, 0.04 units of malate dehydrogenase was reacted with 50 mM Tris-HCL buffer (pH 7.5) containing 5 mM L-malate, 50 mM MgCl2, and 2 mM NADP+ at room temperature, and then fluorescence was measured. In addition, 0.02 units of NADPH oxidase was reacted with 50 mM phosphate buffered saline (PBS) containing 50 mM MgCl2 and 2 mM NADP+ at room temperature, and then fluorescence was measured. At the time of measuring the fluorescence, the reaction solution was diluted in consideration of mole ratio with his-mBFP.
(§2) In addition, the present invention may selectively select an activity inhibitor by restricting the library in the above-mentioned process with a clone having an oxidation/reduction enzyme family, adding a specific compound as well as a substrate in a process of measuring the activities of these enzymes, calculating a changed amount of NADP(H) to compare the calculated value with that of a control group (only substrate was add). These processes mean that after clones having related enzyme activities are cultured and a substrate and NADP(H) are added thereto, a changed amount of NADPH is quantified while inducing a reaction in an environment in which various synthetic materials are present.
(§3) In more detail, compounds having a possibility as the activity inhibitor were added to reaction solution of NADPH dependent oxidoreductase as in Example 7 at each concentration (0.1 to 10 mM). While the reaction was carried out, a produced amount of NADPH according to addition of each compound was quantified, and an inhibition degree of specific enzyme activity was confirmed by comparing the produced amount of NADPH in the case of adding the compound (test group) with that of in the case of not adding (control group).
(§4) After rates of NADPH production (reduction) reaction according to the concentration changes of primary selected compounds were measured, IC50 of each compound was calculated using a sigma plot program.

[1] = molecular target: T1, Glucose-6-phosphate dehydrogenase (UniProt P11412); experiment: as above; type: biochemical; details: compounds added at 0.1 to 10 mM, sigma plot
T1 sequence (P11412 1-505): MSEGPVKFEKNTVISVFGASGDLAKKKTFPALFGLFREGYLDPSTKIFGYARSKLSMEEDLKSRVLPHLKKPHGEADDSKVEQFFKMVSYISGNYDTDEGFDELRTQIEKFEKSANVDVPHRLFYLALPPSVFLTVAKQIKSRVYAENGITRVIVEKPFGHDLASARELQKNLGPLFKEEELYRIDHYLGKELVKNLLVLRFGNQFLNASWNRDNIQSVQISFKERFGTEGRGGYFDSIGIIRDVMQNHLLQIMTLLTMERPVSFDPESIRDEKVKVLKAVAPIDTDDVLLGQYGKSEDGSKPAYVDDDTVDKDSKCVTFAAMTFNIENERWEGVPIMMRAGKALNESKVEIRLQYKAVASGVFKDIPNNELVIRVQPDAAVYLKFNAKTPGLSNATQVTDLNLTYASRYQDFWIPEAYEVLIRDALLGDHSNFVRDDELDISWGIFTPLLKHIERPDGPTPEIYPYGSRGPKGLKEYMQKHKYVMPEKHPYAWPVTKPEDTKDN
Protocol: as §1, §2, §3, §4

Isocitrate dehydrogenase = experiment: as above; type: biochemical; details: compounds added at 0.1 to 10 mM, sigma plot
Protocol: as §1, §2, §3, §4

[2] = Retention of fluorescence of his-mBFP according to storage method; type: physicochemical
Protocol: In order to search a long-term storage method for his-mBFP requiring retention of the structure that is an important factor in fluorescence activity, suitable protein storage methods were observed. As storage conditions, degrees of reduction of fluorescence according to time were confirmed at different temperatures (4° C., −20° C., −80° C.) and different concentrations of additives for storage (5% trehalose, 25% glycerol, 50% glycerol, based on final concentration).
Among his-mBFP samples stored under each of the conditions, in the case of frozen samples, the sample was sufficiently hydrated in a cool buffer for 5 to 45 minutes in consideration of reconstruction of the structure, time required for restoration, or the like, and then was used in the experiment.

- IC50 (Alcohol dehydrogenase): 40.6 ± 5.8 µM
Molecule: Cc1cn[nH]c1 [Formepizole]

- IC50 (Alcohol dehydrogenase): 48.9 ± 4.9 µM
Molecule: OC[C@H]1O[C@@H](Oc2cc(O)cc(/C=C/c3ccc(O[C@@H]4O[C@H](CO)[C@@H](O)[C@H](O)[C@H]4O)cc3O)c2)[C@H](O)[C@@H](O)[C@@H]1O [Mulberroside A]

- IC50 (Alcohol dehydrogenase): 61.2 ± 4.1 µM
Molecule: COc1ccc(/C=C/c2cc(O)cc(O[C@@H]3O[C@H](CO)[C@@H](O)[C@H](O)[C@H]3O)c2)cc1O [Rhaponticin]

Molecule: O=C(O[C@@H]1Cc2c(O)cc(O)cc2O[C@@H]1c1ccc(O)c(O)c1)c1cc(O)c(O)c(O)c1 [epicatechin gallate]
- IC50 [1]: 235 ± 37.8 µM

Molecule: O=C(O[C@@H]1Cc2c(O)cc(O)cc2O[C@H]1c1cc(O)c(O)c(O)c1)c1cc(O)c(O)c(O)c1 [gallocatechin gallate]
- IC50 [1]: 225 ± 28.6 µM

Molecule: CC(O)(C(=O)O)C(CC(=O)O)C(=O)O (stereo not drawn) [methylisocitric acid]
- IC50 (Isocitrate dehydrogenase): 102 ± 7.4 µM

Molecule: O=C(O)C(=O)C(C(=O)O)C(O)C(=O)O (stereo not drawn) [oxalomalic acid]
- IC50 (Isocitrate dehydrogenase): 63.3 ± 5.2 µM

B1: his-mBFP: metagenome-derived blue fluorescent protein with histidine tag, amino acid sequence SEQ ID NO: 3 (protein)
chain: MRGSHHHHHHGSACQNLNGKVAFVTGGSRGIGAAIVRRLAADGADIAFTYVSASSKNVATALVQELEAKGRRARAIQADSADPAQVRQAVEQAIVQLGPVDVLVNNAGIFLAGPLGEVTLDDYERTMNINVRAPFVAIQAAQASMPDGGRIINIGSCLAERAGRAGVTLYAASKSALLGMTRGLARDLGARGITANVVHPGPIDTDMNPADGERSGELVAVLSLPHYGEVRDIAGMVAFLAGPDGRYVTGASLAVDGGFAA
modifications: synthetic construct of His-tagged metagenome-derived blue fluorescent protein (mBFP)
- fluorescence maintained ([2]; after 6 months, additive (25% to 50%) added): ≥ 90%
- fluorescence maintained ([2]; both cool and frozen conditions after 6 months): ≥ 80%
- fluorescence maintained ([2]; cold room at 4° C. for 2 months, solution state, no additive for storage): ≥ 80%
- fluorescence maintained ([2]; freezer at −20 to −80° C. for 2 months with an additive for storage): ≥ 95%
- fluorescence intensity maintained ([2]; glycerol final concentration 50%, freezer at −80° C.): ≥ 90%
